{"source": "patent US8697742B2", "about": "“BCRP/ABCG2 inhibitor” (Kabushiki Kaisha Yakult Honsha, priority 2005, dated 2014)", "test_system": "A549/SN-38-4 cells", "assay": "Effect of overcoming SN-38 resistance of BCRP-expressing A549/SN-38-4 cells", "type": "cell-based, human", "details": "48 hours culture with SN-38; for EC50: Homo sapiens, A549, 48 h", "protocol": "The human lung cancer A549 cells or the A549/SN-38-4 cells were suspended in a Ham's F-12 medium containing 10% FBS, 100 U/mL of penicillin, and 100 μg/mL of streptomycin (10% FBS/Ham's F-12), and the resultant suspension was inoculated into a 96-well microplate (2×10^3 cells/50 μL/well), followed by culturing at 5% CO2 and 37° C. overnight. […] After completion of culturing, the number of viable cells was counted by use of a viable cell counting reagent [TetraColor ONE (trademark), product of Seikagaku Corporation] according to the attached instruction manual. […] The greater the relative resistance value, the higher the level of acquired resistance.", "key": {"[1]": {"details": "concentration for 50% reduction of relative SN-38 resistance value (IC50 A549/SN-38-4 / IC50 A549), read-out: Effect of overcoming resistance EC50"}, "[2]": {"details": "concentration for 50% reduction of relative SN-38 resistance value (IC50 A549/SN-38-4 / IC50 A549)"}, "[3]": {"details": "concentration for 50% reduction of relative SN-38 resistance value (IC50 A549/SN-38-4 / IC50 A549), hydrochloride"}}, "note": "Structures can show the parent of a compound that is named as a salt. Where two headings read alike, the source gives them in different places."}
{"smiles": "Cn1cc(/C=C(\\C#N)c2nc3ccccc3s2)c2ccccc21", "note": "[Compound 92, (E)-2-benzothiazol-2-yl-3-(1-methyl-1H-indol-3-yl)-acrylonitrile]", "values": [{"measurement": "EC50", "setting": "[1]", "value": 0.041, "unit": "µg/mL"}]}
{"smiles": "COc1ccc(/C=C(\\C#N)c2nc3ccccc3s2)cc1OC", "note": "[Compound 74, (E)-2-benzothiazol-2-yl-3-(3,4-dimethoxy-phenyl)-acrylonitrile]", "values": [{"measurement": "EC50", "setting": "[1]", "value": 0.021, "unit": "µg/mL"}]}
{"smiles": "COc1ccc(/C(C#N)=C/c2cc(-c3ccc(F)cc3)on2)cc1OC", "note": "[Compound 76, (Z)-2-(3,4-dimethoxy-phenyl)-3-[5-(4-fluoro-phenyl)-isoxazol-3-yl]-acrylonitrile]", "values": [{"measurement": "EC50", "setting": "[1]", "value": 0.002, "unit": "µg/mL"}]}
{"smiles": "COc1ccc(/C(C#N)=C/c2cc3ccccc3o2)cc1OC", "note": "[Compound 69, (Z)-3-benzofuran-2-yl-(3,4-dimethoxy-phenyl)-acrylonitrile]", "values": [{"measurement": "Effect of overcoming resistance EC50", "setting": "[2]", "value": 0.043, "unit": "µg/mL"}]}
{"smiles": "COc1ccc2nc(Cl)c(/C=C(\\C#N)c3cccnc3)cc2c1", "note": "[Compound 80, (Z)-3-(2-chloro-6-methoxy-quinolin-3-yl)-2-pyridin-3-yl-acrylonitrile]", "values": [{"measurement": "EC50", "setting": "[1]", "value": 0.019, "unit": "µg/mL"}]}
{"smiles": "COc1ccc(/C(C#N)=C/c2ccc(Br)o2)cc1OC", "note": "[Compound 54, (Z)-3-(5-bromo-furan-2-yl)-2-(3,4-dimethoxy-phenyl)-acrylonitrile]", "values": [{"measurement": "EC50", "setting": "[1]", "value": 0.036, "unit": "µg/mL"}]}
{"smiles": "COc1ccc(/C(C#N)=C/c2ccc(N3CCN(C)CC3)o2)cc1OC", "note": "[Compound 29, (Z)-2-(3,4-dimethoxy-phenyl)-3-[5-(4-methyl-piperazin-1-yl)-furan-2-yl]-acrylonitrile hydrochloride]", "values": [{"measurement": "Effect of overcoming resistance EC50", "setting": "[3]", "value": 0.42, "unit": "µg/mL"}]}
{"smiles": "COc1ccc(/C(C#N)=C/c2c3ccccc3c(Cl)c3ccccc23)cc1OC", "note": "[Compound 93, (Z)-3-(10-chloro-anthracen-9-yl)-2-(3,4-dimethoxy-phenyl)-acrylonitrile]", "values": [{"measurement": "EC50", "setting": "[1]", "value": 0.28, "unit": "µg/mL"}]}
{"smiles": "COc1ccc(/C(C#N)=C/c2ccc(N3CCN(C)CC3)s2)cc1OC", "note": "[Compound 8, (Z)-2-(3,4-dimethoxy-phenyl)-3-[5-(4-methyl-piperazin-1-yl)-thiophen-2-yl]-acrylonitrile]", "values": [{"measurement": "EC50", "setting": "[1]", "value": 0.045, "unit": "µg/mL"}]}
{"smiles": "COc1ccc(/C(C#N)=C/c2ccc(-c3cccc(N)c3)o2)cc1OC", "note": "[Compound 22, (Z)-3-[5-(3-amino-phenyl)-furan-2-yl]-2-(3,4-dimethoxy-phenyl)-acrylonitrile]", "values": [{"measurement": "Effect of overcoming resistance EC50", "setting": "[2]", "value": 0.013, "unit": "µg/mL"}]}
{"smiles": "COc1ccc(/C(C#N)=C/c2ccc(N3CCN(CCO)CC3)s2)cc1OC.COc1ccc(/C(C#N)=C/c2ccc(N3CCN(CCO)CC3)s2)cc1OC.O=S(=O)(O)O", "note": "[Compound 100, (Z)-2-(3,4-dimethoxy-phenyl)-3-{5-[4-(2-hydroxy-ethyl)-piperazin-1-yl]-thiophen-2-yl}-acrylonitrile ½ sulfate]", "values": [{"measurement": "Effect of overcoming resistance EC50", "setting": "[2]", "value": 0.012, "unit": "µg/mL"}]}
{"smiles": "N#C/C(=C\\c1cc2ccccc2o1)c1coc2ccccc12", "note": "[Compound 91, (Z)-3-benzofuran-2-yl-2-benzofuran-3-yl-acrylonitrile]", "values": [{"measurement": "EC50", "setting": "[1]", "value": 0.52, "unit": "µg/mL"}]}
{"smiles": "CCN(CC)CCN(C)C(=O)CCC(=O)OC1CCN(c2ccc(/C=C(\\C#N)c3ccc(OC)c(OC)c3)s2)CC1", "note": "[Compound 98, 1-[5-[(Z)-2-cyano-2-(3,4-dimethoxy-phenyl)-vinyl]-thiophen-2-yl]-piperidin-4-yl N-(2-diethylamino-ethyl)-N-methyl-succinamate hydrochloride]", "values": [{"measurement": "EC50", "setting": "[1]", "value": 0.1, "unit": "µg/mL"}]}
{"smiles": "COc1ccc(/C(C#N)=C/c2ccc(N(C)CCO)s2)cc1OC", "note": "[Compound 7, (Z)-2-(3,4-dimethoxy-phenyl)-3-{5-[(2-hydroxy-ethyl)-methyl-amino]-thiophen-2-yl}-acrylonitrile]", "values": [{"measurement": "EC50", "setting": "[1]", "value": 0.039, "unit": "µg/mL"}]}
{"smiles": "COc1ccc(/C(C#N)=C/c2ccc(N3CCC(OC(=O)CCC(=O)N4CCC(N5CCCCC5)CC4)CC3)s2)cc1OC.Cl", "note": "[Compound 64, 1-[5-[(Z)-2-cyano-2-(3,4-dimethoxy-phenyl)-vinyl]-thiophen-2-yl]-piperidin-4-yl 4-[1,4′]bipiperidinyl-1′-yl-4-oxo-butylate hydrochloride]", "values": [{"measurement": "Effect of overcoming resistance EC50", "setting": "[2]", "value": 0.053, "unit": "µg/mL"}]}
{"smiles": "N#C/C(=C\\c1ccnc2ccccc12)c1ccccn1", "note": "[Compound 85, (Z)-2-pyridin-2-yl-3-quinolin-4-yl-acrylonitrile]", "values": [{"measurement": "EC50", "setting": "[1]", "value": 0.23, "unit": "µg/mL"}]}
{"smiles": "COc1ccc(/C(C#N)=C/c2ccc(N(C)CCN(C)C)s2)cc1OC", "note": "[Compound 10, (Z)-2-(3,4-dimethoxy-phenyl)-3-{5-[(2-dimethylamino-ethyl)-methyl-amino]-thiophen-2-yl}-acrylonitrile]", "values": [{"measurement": "EC50", "setting": "[1]", "value": 0.12, "unit": "µg/mL"}]}
{"smiles": "COc1ccc(/C(C#N)=C/c2ccc(N(C)CCN(C)C)s2)cc1OC", "note": "[Compound 15, (Z)-2-(3,4-dimethoxy-phenyl)-3-{5-[(2-dimethylamino-ethyl)-methyl-amino]-thiophen-2-yl}-acrylonitrile hydrochloride]", "values": [{"measurement": "Effect of overcoming resistance EC50", "setting": "[3]", "value": 0.2, "unit": "µg/mL"}]}
{"smiles": "COc1ccc(/C(C#N)=C/c2ccc(N3CCCCC3)s2)cc1OC", "note": "[Compound 11, (Z)-2-(3,4-dimethoxy-phenyl)-3-(5-piperidin-1-yl-thiophen-2-yl)-acrylonitrile hydrochloride]", "values": [{"measurement": "Effect of overcoming resistance EC50", "setting": "[3]", "value": 0.049, "unit": "µg/mL"}]}
{"smiles": "COc1ccc(/C(C#N)=C/c2nc3ccccc3n2C)cc1OC", "note": "[Compound 67, (Z)-2-(3,4-dimethoxy-phenyl)-3-(1-methyl-1H-benzimidazol-2-yl)-acrylonitrile]", "values": [{"measurement": "EC50", "setting": "[1]", "value": 0.1, "unit": "µg/mL"}]}
{"smiles": "COc1ccc(/C(C#N)=C/c2cc3ccccc3c3ccccc23)cc1OC", "note": "[Compound 95, (Z)-2-(3,4-dimethoxy-phenyl)-3-phenanthren-9-yl-acrylonitrile]", "values": [{"measurement": "EC50", "setting": "read-out: Effect of overcoming resistance EC50, concentration for 50% reduction of relative SN-38 resistance value (IC50 A549/SN-38-4 / IC50 A549)", "value": 0.008, "unit": "µg/mL"}]}
{"smiles": "CCN(CC)CCCNC(=O)CCC(=O)OC1CCN(c2ccc(/C=C(\\C#N)c3ccc(OC)c(OC)c3)s2)CC1", "note": "[Compound 61, 1-[5-[(Z)-2-cyano-2-(3,4-dimethoxy-phenyl)-vinyl]-thiophen-2-yl]-piperidin-4-yl N-(3-diethylamino-propyl)-succinamate hydrochloride]", "values": [{"measurement": "EC50", "setting": "[1]", "value": 0.044, "unit": "µg/mL"}]}
{"smiles": "COc1ccc(/C(C#N)=C/c2ccc(N3CCN(CCO)CC3)s2)cc1OC", "note": "[Compound 9, (Z)-2-(3,4-dimethoxy-phenyl)-3-{5-[4-(2-hydroxy-ethyl)-piperazin-1-yl]-thiophen-2-yl}-acrylonitrile]", "values": [{"measurement": "EC50", "setting": "[1]", "value": 0.046, "unit": "µg/mL"}]}
{"smiles": "COc1ccc(/C=C(\\C#N)c2ccc(OC)c(OC)c2)cn1", "note": "[Compound 37, (Z)-2-(3,4-dimethoxy-phenyl)-3-(6-methoxy-pyridin-3-yl)-acrylonitrile hydrochloride]", "values": [{"measurement": "Effect of overcoming resistance EC50", "setting": "[3]", "value": 0.12, "unit": "µg/mL"}]}
{"smiles": "COc1ccc2nc(Cl)c(/C=C(\\C#N)c3ccsc3)cc2c1", "note": "[Compound 82, (Z)-3-(2-chloro-6-methoxy-quinolin-3-yl)-2-thiophen-3-yl-acrylonitrile]", "values": [{"measurement": "EC50", "setting": "[1]", "value": 0.078, "unit": "µg/mL"}]}
{"smiles": "COc1ccc(/C(C#N)=C/c2ccc(N3CCN(CCO)CC3)s2)cc1OC.CS(=O)(=O)O", "note": "[Compound 59, (Z)-2-(3,4-dimethoxy-phenyl)-3-{5-[4-(2-hydroxy-ethyl)-piperazin-1-yl]-thiophen-2-yl}-acrylonitrile methanesulfonate]", "values": [{"measurement": "EC50", "setting": "[1]", "value": 0.061, "unit": "µg/mL"}]}
{"smiles": "COc1ccc2nc(Cl)c(/C=C(\\C#N)n3nnc4ccccc43)cc2c1", "note": "[Compound 83, (E)-2-benzotriazol-1-yl-3-(2-chloro-6-methoxy-quinolin-3-yl)-acrylonitrile]", "values": [{"measurement": "EC50", "setting": "[1]", "value": 0.19, "unit": "µg/mL"}]}
{"smiles": "COc1ccc2nc(Cl)c(/C=C(\\C#N)c3ccc(OC)c(OC)c3)cc2c1", "note": "[Compound 73, (Z)-3-(2-chloro-6-methoxy-quinolin-3-yl)-2-(3,4-dimethoxy-phenyl)-acrylonitrile]", "values": [{"measurement": "EC50", "setting": "[1]", "value": 0.011, "unit": "µg/mL"}]}
{"smiles": "COc1ccc(/C=C(\\C#N)c2ccc(OC)c(OC)c2)cn1", "note": "[Compound 35, (Z)-2-(3,4-dimethoxy-phenyl)-3-(6-methoxy-pyridin-3-yl)-acrylonitrile]", "values": [{"measurement": "EC50", "setting": "[1]", "value": 0.19, "unit": "µg/mL"}]}
{"smiles": "N#C/C(=C\\c1csc2ccccc12)c1nc2ccccc2s1", "note": "[Compound 90, (E)-3-benzo[b]thiophen-3-yl-2-benzothiazol-2-yl-acrylonitrile]", "values": [{"measurement": "EC50", "setting": "[1]", "value": 0.46, "unit": "µg/mL"}]}
{"smiles": "COc1ccc(/C=C(\\C#N)c2ccccn2)cc1OC", "note": "[Compound 47, (Z)-3-(3,4-dimethoxy-phenyl)-2-pyridin-2-yl-acrylonitrile hydrochloride]", "values": [{"measurement": "Effect of overcoming resistance EC50", "setting": "[3]", "value": 0.03, "unit": "µg/mL"}]}
{"smiles": "COc1ccc(/C(C#N)=C/c2ccc(N3CCN(CCO)CC3)s2)cc1OC", "note": "[Compound 102, (Z)-2-(3,4-dimethoxy-phenyl)-3-{5-[4-(2-hydroxy-ethyl)-piperazin-1-yl]-thiophen-2-yl}-acrylonitrile nitrate]", "values": [{"measurement": "Effect of overcoming resistance EC50", "setting": "concentration for 50% reduction of relative SN-38 resistance value (IC50 A549/SN-38-4 / IC50 A549), nitrate", "value": 0.017, "unit": "µg/mL"}]}
{"smiles": "COc1ccc(/C(C#N)=C/c2ccc(Br)s2)cc1OC", "note": "[Compound 2, (Z)-3-(5-bromo-thiophen-2-yl)-2-(3,4-dimethoxy-phenyl)-acrylonitrile]", "values": [{"measurement": "EC50", "setting": "[1]", "value": 0.13, "unit": "µg/mL"}]}
{"smiles": "CCN(CC)C(=O)OC1CCN(c2ccc(/C=C(\\C#N)c3ccc(OC)c(OC)c3)s2)CC1", "note": "[Compound 97, 1-[5-[(Z)-2-cyano-2-(3,4-dimethoxy-phenyl)-vinyl]-thiophen-2-yl]-piperidin-4-yl diethyl-carbamate]", "values": [{"measurement": "EC50", "setting": "[1]", "value": 0.078, "unit": "µg/mL"}]}
{"smiles": "COc1ccc(/C(C#N)=C/c2ccc3c(c2)CCO3)cc1OC", "note": "[Compound 75, (Z)-3-(2,3-dihydro-benzofuran-5-yl)-2-(3,4-dimethoxy-phenyl)-acrylonitrile]", "values": [{"measurement": "EC50", "setting": "[1]", "value": 0.017, "unit": "µg/mL"}]}
{"smiles": "COc1ccc(/C(C#N)=C/c2csc3ccccc23)cc1OC", "note": "[Compound 66, (Z)-3-benzo[b]thiophen-3-yl-2-(3,4-dimethoxy-phenyl)-acrylonitrile]", "values": [{"measurement": "EC50", "setting": "[1]", "value": 0.037, "unit": "µg/mL"}]}
